Measured values: patent publication US8426437B2, “Pyrroloquinoline derivatives and their use as protein kinases inhibitors” (Pierre Fabre Medicament, priority 2005, dated 2013)
Structures can show the parent of a compound that is named as a salt.

Biological target: T1, RET (Homo sapiens, UniProt P07949)
T1 construct: purchased Upstate 14-570MG
Assay: Inhibition of RET kinase activity, recombinant RET method (Kinase-Glo)
Format: biochemical
Conditions: RET 2 μg/ml, poly-EY4 substrate, 20 μM ATP, two hours at 30° C.
Method in brief: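 Recombinant RET at 2 μg/ml in 20 mM MOPS/NaOH pH 7.0, 1 mM EDTA, 5% glycerol, 0.01% Brij35, 0.1% 2-mercaptoethanol, 1 mg/ml BSA; compounds 10 nM–30 μM final.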

T1 sequence (P07949 29-1114): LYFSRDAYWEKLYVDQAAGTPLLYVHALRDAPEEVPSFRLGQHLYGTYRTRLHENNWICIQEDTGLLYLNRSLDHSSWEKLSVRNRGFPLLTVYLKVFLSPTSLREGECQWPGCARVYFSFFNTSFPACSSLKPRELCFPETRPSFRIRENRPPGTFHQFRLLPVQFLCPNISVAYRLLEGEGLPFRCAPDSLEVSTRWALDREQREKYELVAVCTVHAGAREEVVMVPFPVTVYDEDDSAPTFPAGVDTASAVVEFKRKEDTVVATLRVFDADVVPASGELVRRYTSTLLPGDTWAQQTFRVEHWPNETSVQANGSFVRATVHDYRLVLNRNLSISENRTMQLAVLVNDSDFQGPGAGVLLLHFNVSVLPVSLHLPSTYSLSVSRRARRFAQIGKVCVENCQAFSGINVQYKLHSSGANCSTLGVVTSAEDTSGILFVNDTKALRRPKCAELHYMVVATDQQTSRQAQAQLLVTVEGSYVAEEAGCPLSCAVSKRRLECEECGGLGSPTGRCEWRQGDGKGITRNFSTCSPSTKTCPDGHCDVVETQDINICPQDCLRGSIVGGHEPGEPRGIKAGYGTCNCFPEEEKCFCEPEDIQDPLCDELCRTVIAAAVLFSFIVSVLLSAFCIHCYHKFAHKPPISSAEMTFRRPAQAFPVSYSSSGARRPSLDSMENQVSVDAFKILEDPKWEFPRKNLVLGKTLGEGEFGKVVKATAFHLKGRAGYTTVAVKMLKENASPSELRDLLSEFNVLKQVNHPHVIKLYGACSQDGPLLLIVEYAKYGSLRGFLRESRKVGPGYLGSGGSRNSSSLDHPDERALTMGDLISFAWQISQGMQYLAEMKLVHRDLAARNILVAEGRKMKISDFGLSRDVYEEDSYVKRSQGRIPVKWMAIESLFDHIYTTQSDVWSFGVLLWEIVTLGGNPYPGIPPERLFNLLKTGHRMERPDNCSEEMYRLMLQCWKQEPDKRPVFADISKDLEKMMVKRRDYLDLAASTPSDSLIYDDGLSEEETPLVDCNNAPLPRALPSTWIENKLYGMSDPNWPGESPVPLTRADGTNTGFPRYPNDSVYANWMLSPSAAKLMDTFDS

Row | SMILES | IC50 [nM]
1 | CCOC(=O)c1c[nH]c2c(=O)[nH]c3ccc(S(=O)(=O)NC4CCCCC4)cc3c12 [Compound 30, 8-Cyclohexylsulfamoyl-4-oxo-4,5-dihydro-3H-pyrrolo[2,3-c]quinoline-1-ethyl carboxylate] | 100 to 1000
2 | CCOC(=O)c1c[nH]c2c(=O)[nH]c3ccc(-c4cccc(NC(C)=O)c4)cc3c12 [Compound 236, 8-(3-Acetylaminophenyl)-4-oxo-4,5-dihydro-3H-pyrrolo[2,3-c]quinoline-1-ethyl carboxylate] | 100 to 1000
3 | C#CCN(CCN(C(=O)OC(C)(C)C)C(C)C)S(=O)(=O)c1ccc2[nH]c(=O)c3[nH]cc(C(=O)OCCC)c3c2c1 [Compound 159, 8-{[2-(tert-Butoxycarbonyl-isopropyl-amino)-ethyl]-prop-2-ynyl-sulfamoyl}-4-oxo-4,5-dihydro-3H-pyrrolo[2,3-c]quinoline-1-propyl carboxylate] | 1000 to 10000
4 | CCOC(=O)c1c[nH]c2c(=O)[nH]c3ccc(NS(=O)(=O)c4ccccc4Cl)cc3c12 [Compound 42, 8-(2-Chloro-benzenesulfonylamino)-4-oxo-4,5-dihydro-3H-pyrrolo[2,3-c]quinoline-1-ethyl carboxylate] | 10000 to 100000
5 | CCOC(=O)c1c[nH]c2c(=O)[nH]c3ccc(Sc4ccccc4)cc3c12 [Compound 220, 4-Oxo-8-phenylsulfanyl-4,5-dihydro-3H-pyrrolo[2,3-c]quinoline-1-ethyl carboxylate] | 100 to 1000
6 | CCOC(=O)c1c[nH]c2c(=O)[nH]c3ccc(S(=O)(=O)NC)cc3c12 [Compound 27, 8-Methylsulfamoyl-4-oxo-4,5-dihydro-3H-pyrrolo[2,3-c]quinoline-1-ethyl carboxylate] | 100 to 1000
7 | CCOC(=O)c1c[nH]c2c(=O)[nH]c3ccc(NS(=O)(=O)c4ccc(OC)cc4)cc3c12 [Compound 50, 8-(4-Methoxy-benzenesulfonylamino)-4-oxo-4,5-dihydro-3H-pyrrolo[2,3-c]quinoline-1-ethyl carboxylate] | 1000 to 10000
8 | CCOC(=O)c1c[nH]c2c(=O)[nH]c3cc(OC)c(I)cc3c12 [Compound 214, 8-Iodo-7-methoxy-4-oxo-4,5-dihydro-3H-pyrrolo[2,3-c]quinoline-1-ethyl carboxylate] | 1000 to 10000
9 | CCOC(=O)c1c[nH]c2c(=O)[nH]c3ccc(S(=O)(=O)Nc4ccc(Cl)cc4)cc3c12 [Compound 11, 8-(4-Chlorophenylsulfamoyl)-4-oxo-4,5-dihydro-3H-pyrrolo[2,3-c]quinoline-1-ethyl carboxylate] | 100 to 1000
10 | CCCOC(=O)c1c[nH]c2c(=O)[nH]c3ccc(S(=O)(=O)N(C[C@H]4CCCN4C)C4CC4)cc3c12 [Compound 146, (R)-8-[Cyclopropyl-(1-methyl-pyrrolidin-2-ylmethyl)-sulfamoyl]-4-oxo-4,5-dihydro-3H-pyrrolo[2,3-c]quinoline-1-propyl carboxylate] | 100 to 1000
11 | CCOC(=O)c1c[nH]c2c(=O)[nH]c3ccc([S+]([O-])Cc4ccccc4)cc3c12 (stereo not shown) [Compound 198, 4-Oxo-8-phenylmethanesulfinyl-4,5-dihydro-3H-pyrrolo[2,3-c]quinoline-1-ethyl carboxylate] | 100 to 1000
12 | CCOC(=O)c1c[nH]c2c(=O)[nH]c3ccc(S(=O)(=O)Nc4ccc(N)cc4)cc3c12 [Compound 20, 8-(4-Aminophenylsulfamoyl)-4-oxo-4,5-dihydro-3H-pyrrolo[2,3-c]quinoline-1-ethyl carboxylate] | < 100
13 | O=C(OCc1ccccc1)c1c[nH]c2c(=O)[nH]c3ccccc3c12 [Compound 74, 4-Oxo-4,5-dihydro-3H-pyrrolo[2,3-c]quinoline-1-carboxylate benzyl] | 1000 to 10000
14 | CN(c1ccc(F)cc1)S(=O)(=O)c1ccc2[nH]c(=O)c3[nH]cc(C(=O)OCCN)c3c2c1 [Compound 105, 8-[(4-Fluorophenyl)-methyl-sulfamoyl]-4-oxo-4,5-dihydro-3H-pyrrolo[2,3-c]quinoline-1-2-aminoethyl trifluoroacetate carboxylate] | 10000 to 100000
15 | CCOC(=O)c1c[nH]c2c(=O)[nH]c3ccc(NC(=O)c4ccccc4)cc3c12 [Compound 60, 8-Benzoylamino-4-oxo-4,5-dihydro-3H-pyrrolo[2,3-c]quinoline-1-ethyl carboxylate] | 1000 to 10000
16 | CCOC(=O)c1c[nH]c2c(=O)[nH]c3ccc(-c4csc(Nc5ccc(Cl)c(Cl)c5)n4)cc3c12 [Compound 273, 8-[2-(3,4-Dichlorophenylamino)-thiazol-4-yl]-4-oxo-4,5-dihydro-3H-pyrrolo[2,3-c]quinoline-1-ethyl carboxylate] | 1000 to 10000

Row | SMILES | IC50 [nM]
17 | CS(=O)(=O)c1cccc(-c2ccc3[nH]c(=O)c4[nH]cc(C(=O)OC5CCCC5)c4c3c2)c1 [Compound 256, 8-(3-Methanesulfonyl-phenyl)-4-oxo-4,5-dihydro-3H-pyrrolo[2,3-c]quinoline-1-cyclopentyl carboxylate] | 100 to 1000
18 | CCCOC(=O)c1c[nH]c2c(=O)[nH]c3ccc(S(=O)(=O)N(C)CCSC)cc3c12 [Compound 135, 8-[Methyl-(2-methylsulfanyl-ethyl)-sulfamoyl]-4-oxo-4,5-dihydro-3H-pyrrolo[2,3-c]quinoline-1-propyl carboxylate] | 100 to 1000
19 | CCCOC(=O)c1c[nH]c2c(=O)[nH]c3ccc(S(=O)(=O)N(C[C@@H](C)NC(=O)OC(C)(C)C)C4CC4)cc3c12 [Compound 154, (R)-8-[(2-tert-Butoxycarbonylamino-propyl)-cyclopropyl-sulfamoyl]-4-oxo-4,5-dihydro-3H-pyrrolo[2,3-c]quinoline-1-propyl carboxylate] | 1000 to 10000
20 | CCCOC(=O)c1c[nH]c2c(=O)[nH]c3ccc(S(=O)(=O)N(C)CCC#N)cc3c12 [Compound 126, 8-[(2-Cyano-ethyl)-methyl-sulfamoyl]-4-oxo-4,5-dihydro-3H-pyrrolo[2,3-c]quinoline-1-propyl carboxylate] | 100 to 1000
21 | C#CCN(CCNC)S(=O)(=O)c1ccc2[nH]c(=O)c3[nH]cc(C(=O)OCCC)c3c2c1 [Compound 156, 8-[(2-Methylamino-ethyl)-prop-2-ynyl-sulfamoyl]-4-oxo-4,5-dihydro-3H-pyrrolo[2,3-c]quinoline-1-propyl carboxylate hydrochloride] | < 100
22 | CC(C)(C)OC(=O)N[C@H]1CCN(S(=O)(=O)c2ccc3[nH]c(=O)c4[nH]cc(C(=O)O)c4c3c2)C1 [Compound 165, (S)-8-(3-tert-Butoxycarbonylamino-pyrrolidine-1-sulfonyl)-4-oxo-4,5-dihydro-3H-pyrrolo[2,3-c]quinoline-1-carboxylic acid] | 10000 to 100000
23 | NC(=O)C1CCCN(S(=O)(=O)c2ccc3[nH]c(=O)c4[nH]cc(C(=O)O)c4c3c2)C1 (stereo not shown) [Compound 180, 8-(3-Carbamoyl-piperidine-1-sulfonyl)-4-oxo-4,5-dihydro-3H-pyrrolo[2,3-c]quinoline-1-carboxylic acid] | 10000 to 100000
24 | CCOC(=O)c1c[nH]c2c(=O)[nH]c3ccc(C(C)=O)cc3c12 [Compound 101, 8-Acetyl-4-oxo-4,5-dihydro-3H-pyrrolo[2,3-c]quinoline-1-ethyl carboxylate] | 1000 to 10000
25 | CCOC(=O)c1ccc(NS(=O)(=O)c2ccc3[nH]c(=O)c4[nH]cc(C(=O)OCC)c4c3c2)cc1 [Compound 14, 8-(4-Ethoxycarbonyl-phenylsulfamoyl)-4-oxo-4,5-dihydro-3H-pyrrolo[2,3-c]quinoline-1-ethyl carboxylate] | 1000 to 10000
26 | CCOC(=O)c1c[nH]c2c(=O)[nH]c3ccc(S(=O)(=O)N4CCc5ccccc54)cc3c12 [Compound 21, 8-(2,3-Dihydro-indole-1-sulfonyl)-4-oxo-4,5-dihydro-3H-pyrrolo[2,3-c]quinoline-1-ethyl carboxylate] | 100 to 1000
27 | CCOC(=O)c1c[nH]c2c(=O)[nH]c3ccc(N(C)C)cc3c12 [Compound 62, 8-Dimethylamino-4-oxo-4,5-dihydro-3H-pyrrolo[2,3-c]quinoline-1-ethyl carboxylate] | 1000 to 10000
28 | C#CCN(CCN(C)C(=O)OC(C)(C)C)S(=O)(=O)c1ccc2[nH]c(=O)c3[nH]cc(C(=O)OCCC)c3c2c1 [Compound 157, 8-{[2-(tert-Butoxycarbonyl-methyl-amino)-ethyl]-prop-2-ynyl-sulfamoyl}-4-oxo-4,5-dihydro-3H-pyrrolo[2,3-c]quinoline-1-propyl carboxylate] | < 100
29 | CCCOC(=O)c1c[nH]c2c(=O)[nH]c3ccc(S(=O)(=O)N(C)C4CCS(=O)(=O)CC4)cc3c12 [Compound 132, 8-[(1,1-Dioxo-hexahydro-1,6-thiopyran-4-yl)-methyl-sulfamoyl]-4-oxo-4,5-dihydro-3H-pyrrolo[2,3-c]quinoline-1-propyl carboxylate] | 1000 to 10000
30 | C#CCN(CCO)S(=O)(=O)c1ccc2[nH]c(=O)c3[nH]cc(C(=O)OCCC)c3c2c1 [Compound 175, 8-[(2-Hydroxy-ethyl)-prop-2-ynyl-sulfamoyl]-4-oxo-4,5-dihydro-3H-pyrrolo[2,3-c]quinoline-1-propyl carboxylate] | 100 to 1000
31 | CCCOC(=O)c1c[nH]c2c(=O)[nH]c3cc(F)c(S(=O)(=O)N(C)C)cc3c12 [Compound 186, 8-Dimethylsulfamoyl-7-fluoro-4-oxo-4,5-dihydro-3H-pyrrolo[2,3-c]quinoline-1-propyl carboxylate] | 100 to 1000
